Here are results for 45 substances from patent US10143731B2, “Peptides and combination of peptides for use in immunotherapy against various cancers” (immatics biotechnologies GmbH, priority 2015, dated 2018).

For the first assay, the system named is CD8+ T cells. The experiment in a line: In vitro T-cell priming assay (aAPCs loaded with peptide/MHC and anti-CD28, multimer staining readout). The class given is cell-based, human. The conditions noted are these: CD8+ T cells of healthy donors, three stimulation cycles with peptide/MHC and anti-CD28 coated beads. The procedure:
In an aspect, the peptides are pre-screened for immunogenicity before being included in the warehouse. By way of example, and not limitation, the immunogenicity of the peptides included in the warehouse is determined by a method comprising in vitro T-cell priming through repeated stimulations of CD8+ T cells from healthy donors with artificial antigen presenting cells loaded with peptide/MHC complexes and anti-CD28 antibody.
In order to obtain information regarding the immunogenicity of the TUMAPs of the present invention, the inventors performed investigations using an in vitro T-cell priming assay based on repeated stimulations of CD8+ T cells with artificial antigen presenting cells (aAPCs) loaded with peptide/MHC complexes and anti-CD28 antibody.
In order to perform in vitro stimulations by artificial antigen presenting cells loaded with peptide-MHC complex (pMHC) and anti-CD28 antibody, the inventors first isolated CD8+ T cells from fresh HLA-A*02 leukapheresis products via positive selection using CD8 microbeads (Miltenyi Biotec, Bergisch-Gladbach, Germany) of healthy donors obtained from the University clinics Mannheim, Germany, after informed consent.
PBMCs and isolated CD8+ lymphocytes were incubated in T-cell medium (TCM) until use consisting of RPMI-Glutamax (Invitrogen, Karlsruhe, Germany) supplemented with 10% heat inactivated human AB serum (PAN-Biotech, Aidenbach, Germany), 100 U/ml Penicillin/100 μg/ml Streptomycin (Cambrex, Cologne, Germany), 1 mM sodium pyruvate (CC Pro, Oberdorla, Germany), 20 μg/ml Gentamycin (Cambrex). 2.5 ng/ml IL7 (PromoCell, Heidelberg, Germany) and 10 U/ml IL-2 (Novartis Pharma, Nürnberg, Germany) were also added to the TCM at this step.
Generation of pMHC/anti-CD28 coated beads, T-cell stimulations and readout was performed in a highly defined in vitro system using four different pMHC molecules per stimulation condition and 8 different pMHC molecules per readout condition.
The purified co-stimulatory mouse IgG2a anti human CD28 Ab 9.3 (Jung et al., 1987) was chemically biotinylated using Sulfo-N-hydroxysuccinimidobiotin as recommended by the manufacturer (Perbio, Bonn, Germany). Beads used were 5.6 μm diameter streptavidin coated polystyrene particles (Bangs Laboratories, Illinois, USA).
pMHC used for positive and negative control stimulations were A*0201/MLA-001 (peptide […] (SEQ ID NO. 303) from modified Melan-A/MART-1) and A*0201/DDX5-001 ([…] from DDX5, SEQ ID NO. 304), respectively.
800.000 beads/200 μl were coated in 96-well plates in the presence of 4×12.5 ng different biotin-pMHC, washed and 600 ng biotin anti-CD28 were added subsequently in a volume of 200 μl. Stimulations were initiated in 96-well plates by co-incubating 1×10^6 CD8+ T cells with 2×10^5 washed coated beads in 200 μl TCM supplemented with 5 ng/ml IL-12 (PromoCell) for 3 days at 37° C. Half of the medium was then exchanged by fresh TCM supplemented with 80 U/ml IL-2 and incubating was continued for 4 days at 37° C. This stimulation cycle was performed for a total of three times. For the pMHC multimer readout using 8 different pMHC molecules per condition, a two-dimensional combinatorial coding approach was used as previously described (Andersen et al., 2012) with minor modifications encompassing coupling to 5 different fluorochromes. Finally, multimeric analyses were performed by staining the cells with Live/dead near IR dye (Invitrogen, Karlsruhe, Germany), CD8-FITC antibody clone SK1 (BD, Heidelberg, Germany) and fluorescent pMHC multimers. For analysis, a BD LSRII SORP cytometer equipped with appropriate lasers and filters was used. Peptide specific cells were calculated as percentage of total CD8+ cells. Evaluation of multimeric analysis was done using the FlowJo software (Tree Star, Oregon, USA). In vitro priming of specific multimer+CD8+ lymphocytes was detected by comparing to negative control stimulations.
Turning to “292 (GMMTAILGV; listed as Homo sapiens) [compound 292]”, the “Wells (in vitro immunogenicity of HLA class I peptides)” value is “+ (<20% = +)”. The same measure, in the same setting: under “296 (TYVDSSHTI; listed as Homo sapiens) [compound 296]” stands “+ (<20% = +)”. The same measure, in the same setting: under “301 (AYKPGALTF; listed as Homo sapiens) [compound 301]” stands “+ (<20% = +)”; under “291 (KLDETGNSL; listed as Homo sapiens) [compound 291]”, “+ (<20% = +)”.

The same assay, now with this note: in vitro immunogenicity of HLA class I peptides.
For “35 (FLLPFSTVYL; listed as Homo sapiens) [compound 35]”, the “Wells positive [%]” value is reported as “+ (<20% = +)”. Same read-out and setting: next, “230 (KLQNIMMLL; listed as Homo sapiens) [compound 230]”: “++++ (> = 70% = ++++)”. On the same count and under the same terms, under “90 (FLQDLEQRL; listed as Homo sapiens) [compound 90]” stands “+ (<20% = +)”; under “149 (ILNTHITEL; listed as Homo sapiens) [compound 149]”, “+ (<20% = +)”; under “269 (YFIDSTNLKTHF; listed as Homo sapiens) [compound 269]”, “+ (<20% = +)”. Still for that read-out and setting: next, “285 (HYPPVQVLF; listed as Homo sapiens) [compound 285]”: “+ (<20% = +)”; “207 (AYVVFVSTL; listed as Homo sapiens) [compound 207]”: “+ (<20% = +)”. In the case of “31 (TITETTVEV; listed as Homo sapiens) [compound 31]”, the “Wells positive [%]” value was “+ (<20% = +)”.

The next assay deals with HLA-A*24. The experiment in a line: MHC binding assay by UV-ligand exchange and beta2m ELISA, HLA-A*24. Also on record: species or system human. The settings on record: binding to HLA-A*24 ranged by peptide exchange yield (UV-ligand exchange, β2m ELISA). An excerpt:
MHC Binding Assays Candidate peptides for T cell based therapies according to the present invention were further tested for their MHC binding capacity (affinity). The individual peptide-MHC complexes were produced by UV-ligand exchange, where a UV-sensitive peptide is cleaved upon UV-irradiation, and exchanged with the peptide of interest as analyzed. Only peptide candidates that can effectively bind and stabilize the peptide-receptive MHC molecules prevent dissociation of the MHC complexes. To determine the yield of the exchange reaction, an ELISA was performed based on the detection of the light chain (β2m) of stabilized MHC complexes. The assay was performed as generally described in Rodenko et al. (Rodenko et al., 2006).
96 well MAXISorp plates (NUNC) were coated over night with 2 ug/ml streptavidin in PBS at room temperature, washed 4× and blocked for 1 h at 37° C. in 2% BSA containing blocking buffer. Refolded HLA-A*02:01/MLA-001 monomers served as standards, covering the range of 15-500 ng/ml. Peptide-MHC monomers of the UV-exchange reaction were diluted 100 fold in blocking buffer. Samples were incubated for 1 h at 37° C., washed four times, incubated with 2 ug/ml HRP conjugated anti-β2m for 1 h at 37° C., washed again and detected with TMB solution that is stopped with […]. Absorption was measured at 450 nm. Candidate peptides that show a high exchange yield (preferably higher than 50%, most preferred higher than 75%) are generally preferred for a generation and production of antibodies or fragments thereof, and/or T cell receptors or fragments thereof, as they show sufficient avidity to the MHC molecules and prevent dissociation of the MHC complexes.
(In general: ELISA stands for enzyme-linked immunosorbent assay.)
On to “280 (RYPDNLKHLYL; listed as Homo sapiens) [compound 280]”, for which the Peptide exchange result is reported as “++++ (> = 75% = ++++)”. On the same count and under the same terms, under “210 (IYTMIYRNL; listed as Homo sapiens) [compound 210]” stands “++++ (> = 75% = ++++)”; under “172 (TYTTVPRVAF; listed as Homo sapiens) [compound 172]”, “++++ (> = 75% = ++++)”. On the same count and under the same terms, next, “227 (IFLDYEAGTLSF; listed as Homo sapiens) [compound 227]”: “++++ (> = 75% = ++++)”. Same read-out and setting: under “217 (FFPPTRQMGLLF; listed as Homo sapiens) [compound 217]” stands “++++ (> = 75% = ++++)”. Turning to “211 (YYLEVGKTLI; listed as Homo sapiens) [compound 211]”, the Peptide exchange result is given as “++++ (> = 75% = ++++)”.

Turning to “276 (VYGFQWRHF; listed as Homo sapiens) [compound 276]”, the Peptide exchange entry is “++++ (> = 75% = ++++)”. Regarding “195 (TYSVSFPMF; listed as Homo sapiens) [compound 195]”, the Peptide exchange entry is “++++ (> = 75% = ++++)”. Regarding “160 (VYTLDIPVL; listed as Homo sapiens) [compound 160]”, the Peptide exchange result is given as “++++ (> = 75% = ++++)”.

In the case of “177 (VYPWLGALL; listed as Homo sapiens) [compound 177]”, the Peptide exchange result is recorded as “++++ (> = 75% = ++++)”. The same measure, in the same setting: next, “274 (AYLHSHALI; listed as Homo sapiens) [compound 274]”: “++++ (> = 75% = ++++)”; “161 (IYLVSIPEL; listed as Homo sapiens) [compound 161]”: “++++ (> = 75% = ++++)”; “181 (LYLDIINLF; listed as Homo sapiens) [compound 181]”: “++++ (> = 75% = ++++)”. Same read-out and setting: next, “175 (YYEVHKELF; listed as Homo sapiens) [compound 175]”: “++++ (> = 75% = ++++)”. Take “192 (SYALLTYMI; listed as Homo sapiens) [compound 192]”: the Peptide exchange entry is given as “++++ (> = 75% = ++++)”. Same read-out and setting: under “193 (RFHPTPLLL; listed as Homo sapiens) [compound 193]” stands “++++ (> = 75% = ++++)”; under “289 (KYPVEWAKF; listed as Homo sapiens) [compound 289]”, “++++ (> = 75% = ++++)”. Same read-out and setting: next, “168 (KYQDILETI; listed as Homo sapiens) [compound 168]”: “++++ (> = 75% = ++++)”; “278 (RYISDQLFTNF; listed as Homo sapiens) [compound 278]”: “++++ (> = 75% = ++++)”; “184 (VFQNFPLLF; listed as Homo sapiens) [compound 184]”: “++++ (> = 75% = ++++)”.

“282 (KFVDSTFYL; listed as Homo sapiens) [compound 282]”: the Peptide exchange result is “++++ (> = 75% = ++++)”.

Consider “179 (MYDSYWRQF; listed as Homo sapiens) [compound 179]”, for which the Peptide exchange entry is “++++ (> = 75% = ++++)”.

For the substance “187 (TYLRDQHFL; listed as Homo sapiens) [compound 187]”, the Peptide exchange entry is recorded as “++++ (> = 75% = ++++)”. On the same count and under the same terms, under “202 (VYWDSAGAAHF; listed as Homo sapiens) [compound 202]” stands “++++ (> = 75% = ++++)”; under “277 (VYQGHTALL; listed as Homo sapiens) [compound 277]”, “++++ (> = 75% = ++++)”; under “166 (YYVESGKLF; listed as Homo sapiens) [compound 166]”, “++++ (> = 75% = ++++)”.

On to “186 (IFPQFLYQF; listed as Homo sapiens) [compound 186]”, for which the Peptide exchange result is recorded as “++++ (> = 75% = ++++)”. The same measure, in the same setting: next, “173 (IYSWILDHF; listed as Homo sapiens) [compound 173]”: “++++ (> = 75% = ++++)”; “228 (KYTSWYVAL; listed as Homo sapiens) [compound 228]”: “++++ (> = 75% = ++++)”. Same read-out and setting: under “216 (QYSSVFKSL; listed as Homo sapiens) [compound 216]” stands “++++ (> = 75% = ++++)”; under “271 (LYHDIFSRL; listed as Homo sapiens) [compound 271]”, “++++ (> = 75% = ++++)”; under “267 (KYMVYPQTF; listed as Homo sapiens) [compound 267]”, “++++ (> = 75% = ++++)”. Still for that read-out and setting: under “272 (QYLQDAYSF; listed as Homo sapiens) [compound 272]” stands “++++ (> = 75% = ++++)”.
